For data set [1] the following is noted: cited from earlier work.
A short description of data set [2]: Emulsion droplet average size by Dynamic Light Scattering. The note with it: named Span as co-surfactant; 1 g cannabinoid, 0.625 g olive oil, 3.75 g Tween 80, Span:Tween 80 1:6; 45 mL; 80% amplitude sonication until plateau; DLS. Format: physicochemical. How it is done: Droplet size change was monitored by DLS time wise.
Sometimes, measuring concentrated nano-emulsion (>10 mg/g) by Dynamic Light Scattering could have misleading data. Since at higher concentration, the emulsion droplets pack close to each other and may generate unreal scattering pattern. […] While the nanosized droplets are a preferred embodiment of the instant application, larger sized droplets are contemplated as well. Sometimes, larger size emulsion is generated by design to achieve desirable effects.
As is generally known in the art, droplet sizes and their distribution may affect the human feeling on flavor. On one side, nano-size can amplify or even alter the taste, something tastes plain at bulk may taste bitter or sour in nano-scale. On the other side, taste buds on tongue tend to have different time reactions to different sizes of particles. The smaller droplets can quickly absorb at the gap of the tasting buds, thus blocking the touching/feeling from bigger droplets. The droplet size can be well controlled by how much energy is put into the liquid system, which can be controlled either by amplitude % of the sonicator or by how long the liquid is being sonicated at certain amplitude %.
The sonicator continuously calibrates itself to ensure consistent output. A commercially available sonicator may be used to make the compositions disclosed herein. The wattage of such a sonicator may vary from 250 W to about 800 W, and more preferably between about 350 W to about 650 W, and most preferably between 450 W to about 550 W. The output energy depends on the viscosity of the emulsion and also temperature. […] Processing amplitude are adjustable, and it is within a linear relation with intensity. And process time can also be adjustable, which will determine total input energy under certain intensity. Since each formula may need different amount of energy to get into nanosize, we usually monitor droplet size change with Dynamic Light Scattering over production time to determine when to stop the sonication.
1 g of cannabis and 5 g of the Formula 1 are added to a 100 ml beaker, and mechanically stirred under controlled heat (<60° C.), until it is well mixed. The cannabis oil may be a full plant extract or a high pure distillate. Water is added to the mixture, the amount of water is determined by the final targeting concentration. The mixture is kept stirring until a homogenous milky coarse emulsion is formed.

Setting [3] is: Table 1, HLB=20*Mh/M, scale 0 to 20.
The mark [4] stands for this setting: Span surfactants, Example 9 table.

Read-outs that look alike come from different tables or passages of the source.

Turning to Tween 81, the HLB in data set [1] (setting [3]) is recorded as 10.

polyglyceryl-6 oleate: the HLB in data set [1] (setting [3]) is recorded as 9. As for Span 83, in data set [2], the “Final Emulsion droplet average size (nm)” value came to 560 nm.

As to Polyglyceryl-6 Stearate, the HLB in data set [1] (setting [3]) is reported as 9. For Span 40, the HLB in data set [1] (setting [4]) is 6.7. For the same substance, the “Final Emulsion droplet average size (nm)” value in data set [2] is listed as 245 nm. For Span 85, the “Final Emulsion droplet average size (nm)” value in data set [2] came to 876 nm. Turning to Span 20, the “Final Emulsion droplet average size (nm)” value in data set [2] stood at 91 nm. Take Span 80: in data set [1] (setting [4]), the HLB was 4.3. The “Final Emulsion droplet average size (nm)” value in data set [2] amounted to 387 nm. Span 120: the HLB in data set [1] (setting [4]) was 4.7. Also, the “Final Emulsion droplet average size (nm)” value in data set [2] was 302 nm. Take Span 60: the HLB in data set [1] (setting [4]) was 4.7. Moreover, the “Final Emulsion droplet average size (nm)” value in data set [2] was found to be 316 nm.

Values taken from patent publication US11013715B2, “Nanoemulsion hydrophobic substances” (Vertosa, Inc., priority 2018, dated 2021).
